Source: patent US20260069588A1, “VEPDEGESTRANT FOR USE IN TREATING CANCER” (Arvinas Operation, Inc., priority 2022, published 2026)
Like-named read-outs stand apart in the source and are kept apart here.

Assays:
MCF7 cells = assay: Live-cell imaging proliferation, MCF7; format: cell-based; details: Homo sapiens, 144 h; MCF7, up to 6 days
Excerpt: Full growth of the cells over this time period is shown by extent of cell confluence with dimethyl sulfoxide (DMSO).

ERP = ERP (Homo sapiens, UniProt Q92731); assay: Secondary pharmacodynamics binding, ERP; details: in vitro
ERP, sequence (Q92731 whole entry): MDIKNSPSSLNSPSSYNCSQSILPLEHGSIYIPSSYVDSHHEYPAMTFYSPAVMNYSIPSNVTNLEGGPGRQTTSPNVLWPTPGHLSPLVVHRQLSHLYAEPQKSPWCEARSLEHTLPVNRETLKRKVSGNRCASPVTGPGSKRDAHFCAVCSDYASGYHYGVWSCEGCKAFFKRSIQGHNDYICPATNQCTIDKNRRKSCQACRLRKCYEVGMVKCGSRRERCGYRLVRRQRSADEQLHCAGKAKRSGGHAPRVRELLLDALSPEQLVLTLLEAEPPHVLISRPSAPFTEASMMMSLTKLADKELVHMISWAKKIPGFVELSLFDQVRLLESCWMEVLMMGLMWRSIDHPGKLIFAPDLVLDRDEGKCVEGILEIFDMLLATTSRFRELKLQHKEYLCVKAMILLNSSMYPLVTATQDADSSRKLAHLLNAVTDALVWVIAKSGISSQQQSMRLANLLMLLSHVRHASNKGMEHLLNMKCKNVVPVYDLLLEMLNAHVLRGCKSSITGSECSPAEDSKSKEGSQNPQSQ

[1] = 28-day GLP oral toxicity study in dogs; format: in vivo; details: dog
Excerpt: There were no mortalities and no Compound A-related clinical observations, changes in BW or food consumption or ophthalmic observations. There were no ARV-471-related ECG abnormalities observed, including no effects on PR-interval, QRS duration, QT or QTc intervals, or heart rate and no arrhythmias or abnormal waveforms.

[2] = 3-month GLP oral toxicity study in dogs; format: in vivo, dog; details: for Cmax / AUC(0-t): plasma, po, Day 91; for AUC(0-t): read-out: AUC0-24
Procedure: Male and female Beagle dogs, 4/sex/group, were administered 0 (vehicle), 10, 30, or 90 mg/kg/day. Assessment of toxicity was based on clinical observations, BWs, food consumption, ophthalmology, ECG evaluations, and clinical and anatomic pathology.

BCRP = BCRP (Homo sapiens, UniProt Q9UNQ0); assay: Efflux transporter substrate assessment (inside-out vesicular assay), BCRP; format: in vitro ADME
BCRP, sequence (Q9UNQ0 whole entry): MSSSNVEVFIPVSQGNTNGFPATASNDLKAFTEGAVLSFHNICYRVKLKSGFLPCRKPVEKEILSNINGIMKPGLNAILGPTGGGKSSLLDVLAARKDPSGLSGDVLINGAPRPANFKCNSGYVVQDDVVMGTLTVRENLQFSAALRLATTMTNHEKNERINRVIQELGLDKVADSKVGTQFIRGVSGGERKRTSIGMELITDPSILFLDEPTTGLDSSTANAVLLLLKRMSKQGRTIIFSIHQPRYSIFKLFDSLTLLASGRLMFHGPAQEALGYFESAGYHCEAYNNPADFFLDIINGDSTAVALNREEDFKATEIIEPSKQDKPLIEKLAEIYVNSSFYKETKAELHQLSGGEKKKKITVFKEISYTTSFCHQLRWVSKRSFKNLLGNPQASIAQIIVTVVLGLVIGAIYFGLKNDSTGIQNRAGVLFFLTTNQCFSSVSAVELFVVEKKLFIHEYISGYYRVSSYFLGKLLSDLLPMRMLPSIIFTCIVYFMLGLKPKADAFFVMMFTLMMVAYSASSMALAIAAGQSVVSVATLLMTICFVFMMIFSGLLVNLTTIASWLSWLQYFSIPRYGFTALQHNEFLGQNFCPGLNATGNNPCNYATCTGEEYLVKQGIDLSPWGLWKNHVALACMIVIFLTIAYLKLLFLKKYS

[3] = pH effect on absorption with famotidine in fasted rats and dogs; format: in vivo; details: spray-dried dispersion
[4] = Plasma protein binding, mouse; format: in vitro ADME; details: read-out: free fraction
[5] = Plasma protein binding, monkey; format: in vitro ADME; details: read-out: free fraction
[6] = rat, in vivo
[7] = Beagle, dog, female dogs, 90 mg/kg/day
[8] = Beagle, dog, male dogs, 90 mg/kg/day

O=C1CC[C@H](N2Cc3cc(N4CCN(CC5CCN(c6ccc([C@@H]7c8ccc(O)cc8CC[C@@H]7c7ccccc7)cc6)CC5)CC4)ccc3C2=O)C(=O)N1 [Compound A, (S)-3-(5-(4-((1-(4-((1R,2S)-6-hydroxy-2-phenyl-1,2,3,4-tetrahydronaphthalen-1-yl)phenyl)piperidin-4-yl)methyl)piperazin-1-yl)-1-oxoisoindolin-2-yl)piperidine-2,6-dione]
GI50 (MCF7 cells): 4 nM
binding (ERP): bound
ECG evaluations ([1]; 28 days, up to 90 mg/kg/day): did not elicit any changes in ECG evaluations
NOAEL at 28 days ([1]; in vivo, 28 days oral): 90 mg/kg/day
NOAEL at 3 months ([2]; Beagle, dog, in vivo, oral, male dogs, 3 months): 90 mg/kg/day
Cmax [2, 7]: 4250 ng/mL
AUC(0-t) [2, 7]: 73100 ng·h/mL
Cmax [2, 8]: 4880 ng/mL
AUC(0-t) [2, 8]: 83500 ng·h/mL
ECG intervals ([2]; dog, 90 mg/kg/day, Day 85): nonadverse increases in QT-, QTc-, and PR-intervals
NOAEL ([2]; female dogs, 3 months): A NOAEL was not identified
substrate of BCRP (BCRP): unlikely to be a substrate
pH effect on absorption with famotidine [3]: lowered PK at neutral pH
fraction unbound at 1 μM [4]: 0.061
fraction unbound at 1 μM [5]: 0.04
developmental NOAEL [6]: could not be established
